{"source": "paper PMC10622577", "about": "“Structural basis for stabilisation of the RAD51 nucleoprotein filament by BRCA2” (Nature Communications, 2023)", "key": {"RAD51 NPFs": {"system": "RAD51 NPFs", "assay": "cryo-electron micrographs, bundling of RAD51 NPFs on uncapped DNA", "design": "species or system human", "details": "1:0.5 molar ratio of TR2 peptide; uncapped ss- and dsDNA; two independent repeats", "excerpt": "To understand the structural basis for the association of the BRCA2 C-terminus with the RAD51 nucleoprotein filament, we sought to determine the structure of a RAD51-DNA-TR2 filament by high-resolution cryo-electron microscopy (cryoEM). […] Individual filaments within a bundle appeared to be in translational register relative to each other as it was possible to obtain well-resolved 2D classes of filament pairs (Supplementary fig. 5A, Supplementary Table 1). Filament aggregation induced by TR2 complicated picking of individual filament particles and prevented structural determination by cryoEM. We therefore sought to develop a method to prepare RAD51 NPFs in the presence of TR2 peptide without causing filament bundling. We reasoned that bundling might be alleviated by capping the DNA substrate with a bulky tag, to prevent filament aggregation by steric interference. We therefore prepared ss- and dsDNA substrates with a biotin tag at either one end or both ends, that could be bound by monomeric streptavidin (mSA) (Supplementary Fig. 5B, Supplementary Table 1).\nFig. 2 BRCA2 TR2 induces bundling of RAD51 nucleoprotein filaments. A Cryo-electron micrographs of RAD51 NPFs formed on ssDNA and dsDNA in the presence of 1:0.5 molar ratio of TR2 peptide. Extensive NPF aggregation into bundles of aligned filaments is clearly visible (examples marked with dashed white boxes). Two independent repeats. […]"}, "RAD51 D184A NPFs": {"system": "RAD51 D184A NPFs", "assay": "EMSA of TR2 titration on RAD51 D184A NPFs", "assay_type": "binding, human", "description": "To assess RAD51 nucleoprotein (NPF) formation, wild-type and mutant RAD51 proteins were incubated with DNA in buffer: 25 mM HEPES pH 7.5, 150 mM NaCl, 2 mM DTT, 2 mM ATP, 5 mM CaCl2 for 15 minutes at room temperature. For filament binding of the TR2 peptide or His6-MBP-TR2 protein, the RAD51 NPFs were incubated with TR2 for further 5 minutes at room temperature. For filament binding of BRC4, the BRC4 peptide was pre-mixed with RAD51 for 10 minutes at room temperature before addition of DNA. For experiments with mono-streptavidin (mSA)-capped DNA, mSA (Sigma) was added in 5× molar excess of biotin labels for 15 minutes at room temperature prior to the addition of RAD51. Concentrations are provided in figures and DNA sequences for each experiment are reported in Supplementary Table 1.\nBefore electrophoresis, samples were mixed with a 0.5:1 volume of 50% (w/v) sucrose solution and analysed on a pre-run 0.5% (w/v) agarose gel in 0.5× TB buffer at 35 V for 2.5 hours at 4 °C. DNA was visualised by excitation of the fluorescent tag or, in the case of unlabelled DNA, by SYBR Gold staining. Gels were imaged in a Typhoon FLA9000 by excitation at 473 nm for fluorescein-labelled DNA or SYBR Gold-stained gels, 532 nm excitation for Cy3-labelled DNA or 635 nm excitation for Cy5-labelled DNA.\nSupplementary table 1. DNA oligos and peptides\nOligos Size (nt) Sequence (5’ – 3’)\nD184A […] (forward), […]"}, "[1]": {"system": "RAD51 nucleoprotein filaments", "details": "cited from earlier work"}}, "data": [{"sequence": "DDQKNCKKRRALDFLSRLPLPPPVSPICTFVSPAAQKAFQPPRSCGTKY [TR2, BRCA2 TR2 peptide spanning amino acids 3260 to 3308]", "values": [{"measurement": "bundling of RAD51 NPFs", "setting": "RAD51 NPFs", "result": "extensive bundling of RAD51 NPFs with both ss- and dsDNA"}, {"measurement": "reduction in TR2 binding, ssDNA versus dsDNA filaments", "setting": "RAD51 D184A NPFs; EMSA, ssDNA compared with dsDNA", "result": "especially pronounced for filaments formed on ssDNA"}, {"measurement": "TR2 binding relative to wild-type", "setting": "RAD51 D184A NPFs; ss- and dsDNA, 25 mM HEPES pH 7.5, 150 mM NaCl, 2 mM ATP, 5 mM CaCl2, TR2 5 min, room temperature, ssDNA performed twice, dsDNA once", "result": "reduction in TR2 binding proportional to the decrease in charge at RAD51’s acidic patch"}, {"measurement": "effect of TR2 binding on RAD51 NPFs", "setting": "[1]", "result": "stabilisation of RAD51 NPFs and formation of filament aggregates"}, {"measurement": "protection of RAD51 NPFs from disassembly by BRC repeat 4", "setting": "[1]", "result": "protection of RAD51 nucleoprotein filaments from disassembly by BRC repeat 4 of BRCA2"}]}]}
